For series [1], the system named is LSt neurons. The experiment in a line: Cell counts (galanin-IR, SPR-IR, NeuN-IR) in L3-L4 spinal cord after intraspinal SSP-SAP or SAP. The series is classed as in vivo. Particulars: complete = galanin-IR LSt neurons less than 1/3 of untreated rats. From the text: First a membrane target located on the LSt neurons is identified. […] Identification of the SPR receptor on LSt cells enable the use of the targeted toxin SSP-SAP, which consists of the ribosome inhibitor protein toxin saporin (SAP) conjugated to a substance P analogue (SSP) with high affinity for SPR. SSP-SAP is infused into the L3-4 spinal cord at the location of the LSt cells in sexually experienced or sexually naive male rats. Male rats are allowed to mate with a receptive female during 6 pre-operative sessions (3 ejaculations or 100 minutes each).
All procedures are approved by the Animal Care and use Committee of the University of Cincinnati, Ohio and conformed to NIH guidelines involving vertebrate animals in research. Male rats are deeply anesthetized using ketamine/xylazine and laminectomy of L3 and L4 is performed. […]
Control animals are injected with non-conjugated equimolar concentrations of SAP. […] Latencies and numbers of mounts, intromissions, and ejaculations are recorded, and vaginas of females are checked for seminal plugs multiple times during mating tests. […]
Non-specific lesioning is determined by counting neurons visualized by neuronal marker N-IR. SPR containing cells are also counted in a standard area in the dorsal horn, as illustrated in FIG. 2A (area 2), to determine if lesioning is restricted to the area surrounding the central canal. […]

The subject of series [2] is LSt neurons. In words: Optical density of galanin-IR and SPR-IR around IML, CAN and SPN after LSt lesion. The series is classed as in vivo, rats. From the text: In these areas galanin-IR is present in fibers, while SPR-IR is located in neurons and fibers. […] In contrast, SPR-IR is not reduced following LSt lesions.
Following the final behavior test, animals are perfused intracardially with 4% paraformaldehyde and spinal cord tissue is collected for further processing. Spinal cords are cut into 35μm coronal sections and collected in 12 parallel series. Adjacent sections are stained for galanin, SPR or neuronal marker N using the general procedures as described in W. Truitt, M. Shipley, J. Veening, L. Coolen, J. Neurosci (2002). The primary antibodies and concentrations that are used include: Galanin—rabbit anti-galanin at 1:80,000 (PenLabs), Substance P receptor—rabbit anti-NK1 at 1:1,000 (Advanced Targeting Systems), and Neuronal marker N—mouse anti-NeuN at 1:10,000 (Chemicon).

The nature of series [3]: Motor impairment after surgery. The series is classed as in vivo. Particulars: number of SAP-injected control rats excluded; 10 excluded in total (3 SSP-SAP). The protocol: (§1) Control animals are injected with non-conjugated equimolar concentrations of SAP. […] Rats with obvious motor impairment after surgery (n=10; 7 injected with SAP; 3 injected with SSP-SAP) are excluded from the study. Sexual behavior is first tested 10 days after lesion surgery, and during 5 subsequent twice-weekly tests. The trials are performed during the dark phase of the light cycle and consisted of the male rat being placed into the testing cage for 100 minutes with a receptive female. Stimulus females were ovariectomized and implanted subcutaneously (s.c.) with 5% 17-beta-estradiol benzoate silastic capsules. Progesterone (500 μg in 0.1 ml of sesame oil) was injected (s.c.) 4-6 hours prior to testing to induce sexual receptivity. Latencies and numbers of mounts, intromissions, and ejaculations are recorded, and vaginas of females are checked for seminal plugs multiple times during mating tests.

Series [4] relates to LSt neurons. The experiment in a line: Sexual behavior tests after lesion surgery. The series is classed as in vivo, male rats. Particulars: 6 post-surgery tests, 100 minutes with receptive female. The method, then: as §1
The effects of LSt lesions on display of sexual behavior are assessed in the three groups described above. LSt lesions have a dramatic effect on sexual behavior. […] Furthermore, ablation of LSt neurons appears to selectively block ejaculatory behavior while not affecting other components of sexual behavior.

The subject of the next series is male rats. The experiment in a line: Copulatory behavior after 8-OH-DPAT. The series is classed as in vivo. Particulars: 0.8 mg/kg s.c. 30 minutes before test; E1-DP rats, n=3. The protocol: All male and female rats are sexually experienced. […] The female rats are bilaterally ovariectomized two weeks prior to testing. Sexual receptivity is induced using a standard regimen of exogenous estrogen and progesterone, similar to that used for the stimulus females, described above. One week before testing females receive hormone treatment and mating experience with sexually experienced male partners. All testing of experimental groups is performed four hours after onset of the dark period, in a rectangular mating arena (60-45-50 cm), under dim red illumination. After completion of the mating tests, the sexual partners are removed, and experimental animals remained in the test cage for an additional 60 minutes until sacrifice.
The number of mounts, intromissions and total duration of the tests, are recorded for analysis of copulatory behavior. Numbers of mounts and intromissions, as well as duration of test are compared using a one-way ANOVA. Post hoc comparisons are made using the Scheffe test with an alpha of 0.05 required for rejection of the null hypothesis.
The purpose of this example is to investigate neural activation of lumbar spinal cord in male rats that display minimal sexual activity prior to ejaculation. Therefore, male rats are treated with 8-hydroxy-2-(di-n-propylamino) tetralin (8-OH-DPAT), which decreases the number of mounts and intromissions prior to ejaculation. […]

The test system of series [5] is LSt neurons. The experiment in a line: Fos-IR in galanin-IR LSt neurons after 8-OH-DPAT. The series is classed as in vivo, male rats. Particulars: 0.8 mg/kg s.c. The method, then: Activation of LSt neurons is assessed using Fos immunoreactivity (IR) as a marker for neural activation and galanin or CCK-IR to identify LSt cells.
One hour following the end of the behavioral test, animals are anesthetized using sodium pentobarbital (200 mg/kg; i.p.) and perfused transcardially with 100 ml 0.9% saline, followed by 500 ml of 4% paraformaldehyde in 0.1 M sodium phosphate buffer (PB, pH 7.3-7.4). Brain and spinal cords are removed and post fixed for 1 hr at room temperature in the fixative. Coronal sections of thoracic (T), lumbar (L) and sacral (S) spinal cord (T10-S4) are cut at 35 μm on a Microm freezing microtome (Richard Allen, Kalamazoo, Mich.) and collected in twelve parallel series in cryorotectant solution (30% sucrose, 30% ethylene glycol in 0.1 M PB; Watson et al, 1985). In addition, coronal sections ( 35 µm) through thalamus are cut and stored in four parallel series.
All incubations are performed at room temperature with gentle agitation. Series of spinal cord sections ([…]) are rinsed extensively in phosphate buffered saline (PBS) between incubations. Free-floating sections are blocked with 1% H2O2 for 10 min at room temperature and then soaked for one hour in incubation solution (PBS containing 0.1% bovine serum albumin and 0.4% triton X-100). Next, sections are incubated overnight with a primary antiserum in incubation solution to recognize Fos (polyclonal anti-Fos antiserum raised in rabbit; 1:10,000; Santa Cruz, Santa Cruz, Calif.). […]
Analysis of labeling for galanin or CCK, Fos, and dual labeling for Fos and Galanin or CCK, is performed on a Leica light microscope at 4×-40× magnification. Neurons single labeled for galanin or CCK are determined by brown staining of cytoplasm with a nucleus devoid of blue-black (Fos) reaction product. […] Dual labeling is expressed as the percentage of galanin or CCK cells that expressed Fos. […]

Where “and” joins values, the source holds several entries; their conditions need not be identical. Identical values can stand only once.

Turning to saporin, the “lesions of LSt neurons” value with LSt neurons [1] is “no lesions”. In the series on LSt neurons [2] (Substance P receptor-IR around central autonomic nucleus, group in label), the CAN-SPR optical density is 380.26 ± 39.06 pixels (×1,000). Further, in the series with LSt neurons [2] (Substance P receptor-IR around intermediolateral column, group in label), the IML-SPR optical density is given as 209.91 ± 30.92 pixels (×1,000). Moreover, the SPN-SPR optical density in the series on LSt neurons [2] (Substance P receptor-IR around sacral parasympathetic nucleus, group in label) was 392.68 ± 50.65 pixels (×1,000). Also, the CAN-galanin optical density with LSt neurons [2] (galanin-IR around central autonomic nucleus, group in label) is listed as 128.84 ± 25.81 pixels (×1,000). Moreover, the IML-galanin optical density in the series with LSt neurons [2] (galanin-IR around intermediolateral column, group (SAP, SSP-il, SSP-les) in label) is recorded as 58.82 ± 12.85 pixels (×1,000). Further, in the series on LSt neurons [2] (galanin-IR around sacral parasympathetic nucleus, group in label), the SPN-galanin optical density is reported as 137.75 ± 14.99 pixels (×1,000). For the same compound, the “rats with obvious motor impairment after surgery (excluded)” value in series [3] stood at 7. Moreover, in the series on LSt neurons [4], the “display of ejaculatory behavior” value is “continue to ejaculate regularly”.
With `CCCN(CCC)C1CCc2cccc(O)c2C1` (centres unmarked) [8-OH-DPAT, 8-hydroxy-2-(di-n-propylamino) tetralin], in the series with male rats, the “average number of intromissions prior to ejaculation” value is listed as 1.33±0.67 and the “average number of mounts prior to ejaculation” value stood at 2.33±1.20. The “activation of Galanin neurons (Fos)” value with LSt neurons [5] (8-OH-DPAT alone, no exposure to female (DPc group)) is “do not result in activation”. Further, in the series on LSt neurons [5] (E1-DP males, after one ejaculation), the “Galanin-IR neurons containing Fos-IR” value is given as 85.55%±1.76. Moreover, the “mean number of galanin-IR neurons” value in the series with LSt neurons [5] (two groups (one ejaculation / no female), order of values not stated) is 33.67±4.06 and 33.33±5.53.

Source of the values: patent US20040152631A1, “Methods for manipulating ejaculatory reflex and sensation of ejaculation and for treating sexual dysfunction” (priority 2002, published 2004).
